From article PMC10443802, “Targeting a xenobiotic transporter to ameliorate vincristine-induced sensory neuropathy” (JCI Insight, 2023)
Several values for one entry are separate records, joined by “and”; a condition that tells them apart may be missing. Equal values may be shown once.

Legend:
P388D1 = conditions: vincristine 1 μM, 30 min, nilotinib 10 μM
Source text: (A) Gene expression of the OATP1B2 gene in L1210 and P388D1 murine leukemia cells
normalized to total protein levels. All data presented represent the mean (bars) ± SEM (error bars).

[1] = Vincristine accumulation in DRG and liver (tissue to plasma AUC ratio)
Protocol: injection at a dose of 1 mg/kg. Whole blood samples were collected 0.08, 0.25, 0.5, 1, and 4 h, and livers were collected at the final time point.
specimens were stored at -80°C until further processing.
stainless steel bead (Qiagen) and processed for 4 min at 40 Hz. Finally, the beads were removed, and the homogenized samples were stored at -80°C until analysis by LC-MS/MS.
Pharmacokinetic parameters were calculated by non -compartmental analysis using Phoenix WinNonlin version 8.0 (Certara). Peak plasma concentration (C max) was determined by visual inspection of the data from the concentration-time curves. The linear trapezoidal rule was used to obtain the area under the plasma concentration-time curve (AUC), and drug levels in tissues were corrected for
Quantiva triple quadrupole mass spectrometer from Thermo Fisher Scientific was used for LC-MS/MS
analysis. An Accucore aQ column (150 × 2.1 mm, dp = 2.6 μm, Thermo Fisher Scientific) was protected
volume was 5.0 μL. The temperature of the autosampler rack was 4°C, and the temperature of the
column was maintained at 50°C. Mobile phase A consisted of water with 0.1% (v/v) formic acid and
mobile phase B consisted of acetonitrile: methanol (1:1) with 0.1% (v/v) formic acid. The total run time […]
Precursor molecular ions and product ions were recorded for confirmation and
quantification was 5 ng/mL. […]

DRG neurons = assay: DRG morphology and morphometry (neuron cell area); assay type: in vivo, mouse
mOATP1B2 [2] = target: T1, mOATP1B2 (Mus musculus, UniProt Q9JJL3); assay: Inhibition of EβG uptake in HEK293 cells overexpressing mOATP1B2; assay type: cell-based; conditions: HEK293 mOATP1B2; inhibitor 10 μM, 15-min pre-incubation
T1 sequence (Q9JJL3 1-689): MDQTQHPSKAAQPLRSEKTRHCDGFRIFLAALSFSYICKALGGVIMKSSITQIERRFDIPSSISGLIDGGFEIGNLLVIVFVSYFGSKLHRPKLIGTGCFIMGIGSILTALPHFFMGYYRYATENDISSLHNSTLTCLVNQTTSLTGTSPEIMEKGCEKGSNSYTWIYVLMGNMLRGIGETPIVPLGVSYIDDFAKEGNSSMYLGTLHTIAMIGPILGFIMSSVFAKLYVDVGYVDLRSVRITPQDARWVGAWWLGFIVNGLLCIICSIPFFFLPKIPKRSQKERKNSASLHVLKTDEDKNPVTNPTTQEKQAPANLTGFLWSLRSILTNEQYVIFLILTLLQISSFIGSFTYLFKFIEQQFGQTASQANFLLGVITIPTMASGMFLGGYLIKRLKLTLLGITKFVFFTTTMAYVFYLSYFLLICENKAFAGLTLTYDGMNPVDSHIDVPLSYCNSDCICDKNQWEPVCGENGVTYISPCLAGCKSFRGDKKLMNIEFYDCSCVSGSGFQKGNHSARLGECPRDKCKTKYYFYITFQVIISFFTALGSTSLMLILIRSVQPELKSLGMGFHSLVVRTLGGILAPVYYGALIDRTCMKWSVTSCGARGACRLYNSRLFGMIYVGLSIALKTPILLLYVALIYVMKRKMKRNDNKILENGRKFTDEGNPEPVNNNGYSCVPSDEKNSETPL

mice [3] = assay: Thermal hyperalgesia, Hargreaves test (paw withdrawal latency)
mice [4] = system: mice
mice [5] = assay: Nerve conduction studies (sciatic/digital and caudal nerve action potential amplitude and conduction velocity)
OATP1B-type transporters = conditions: read-out: IC50, inhibition of OATP1B-mediated transport; cited from earlier work
mOATP1B2 [6] = target: T1, mOATP1B2; assay: Vincristine uptake, HEK293 cells overexpressing mOATP1B2; assay type: in vitro ADME
Source text: Relative uptake is expressed as percentage change compared with empty vector controls (n = 4–14 per group). […] Human OATP1B1 and OATP1B3 transporter–overexpressed cells were used as positive controls; empty vector controls were used as the negative control. LD, 100 bp ladder. […] Mechanical allodynia (C), thermal hyperalgesia (D), and sciatic nerve maximal action potential amplitudes (E) are expressed as percentage change relative to baseline values (n = 6–8 per group). Statistical analysis was performed using a 2-way ANOVA with Bonferroni’s post hoc test. **P < 0.01, ***P < 0.001, ****P < 0.0001, compared with baseline values. […] Data are shown as mean ± SEM.
Axioskop WideField Light Microscope, as described previously (10). Representative images were captured with a QIClick Digital CCD color camera.
The histograms of g-ratio (axonal diameter/whole fiber diameter as a measure of myelination degree in each fiber) distribution were generated. An observer blinded to the group compositions performed all the morphometric determinations. […]
After incubation, transport was halted by aspirating radiolabeled drug, and rinsing the cells three times with ice-cold 1X PBS. Total radioactivity originating from the substrates was measured by lysing the cells with 1N NaOH, neutralized with 2N HCL, and measuring total radioactivity by liquid scintillation counting using an LS 6500 Counter (Beckman). […]

hMATE1 = hMATE1 (Homo sapiens, UniProt Q96FL8); assay: Substrate uptake in HEK293 cells overexpressing hMATE1; conditions: HEK293 human MATE1
Protocol: (§1) on OATP1B1, OATP1B3, or OATP1B2 function was evaluated using EβG (Axxora LLC) as the
(§2) transfected with transporters of interest, including hOAT1, hOAT3, hOAT4, hOATP1A2, hOATP3A1, hOATP4A1, hOATP5A1, hOATP1C1, hOATP1B1, hOATP1B3, hOATP2B1, hOCT1, hOCT2, hOCTN1, hOCTN2, hASBT, hNTCP, hNPT1, hMATE1, hOSTα/β, hPEPT1, hPEPT2, rOatp1a1, rOatp1a4, rOatp1a5, rOatp1b2, rNtcp, rAsbt, rOat1, and rOct1. Cells were transfected with expression plasmid or vector control lacking any insert using Lipofectin reagent (Invitrogen). Sixteen hours thereafter, cells were washed with transport media (OPTIMEM, Invitrogen) and treated with radiolabeled drug. At various time intervals, cells were washed three times with ice-cold PBS and then lysed with 1% sodium dodecyl sulfate. The cellular radioactivity was quantified by liquid scintillation counting as described above. Similar analyses were performed in HEK293 cells transfected with hOATP1A2, hOATP1C1, mMATE1, and hMATE1, with cells seeded in poly lysine pre-coated 12-well plates. For hOATP1A2 and hOATP1C1, transient transfections were performed with either an empty vector, OATP1A2, or OATP1C1 using Lipofectamine 2000 according to the manufacturers protocol (Invitrogen).

mMATE1 = mMATE1 (Mus musculus, UniProt Q8K0H1); assay: Substrate uptake in HEK293 cells overexpressing mMATE1; conditions: HEK293 mouse MATE1
Protocol: as §1, §2

[7] = WT mice, nilotinib 100 mg/kg p.o. 30 min before each vincristine 1 mg/kg, 4 weeks
[8] = OATP1B2(-/-) mice + Nilotinib, Baseline
[9] = OATP1B2(-/-) mice + Nilotinib, Week 4
[10] = Wild-type mice + Nilotinib, Baseline
[11] = Wild-type mice + Nilotinib, Week 4
[12] = KO (OATP1B2-/-) mice, vincristine 1 mg/kg weekly i.p. + vehicle pretreatment, 4 weeks
[13] = OATP1B2(-/-) mice, vincristine 1 mg/kg weekly, Week 4

Sequence of mMATE1 (Q8K0H1 whole entry): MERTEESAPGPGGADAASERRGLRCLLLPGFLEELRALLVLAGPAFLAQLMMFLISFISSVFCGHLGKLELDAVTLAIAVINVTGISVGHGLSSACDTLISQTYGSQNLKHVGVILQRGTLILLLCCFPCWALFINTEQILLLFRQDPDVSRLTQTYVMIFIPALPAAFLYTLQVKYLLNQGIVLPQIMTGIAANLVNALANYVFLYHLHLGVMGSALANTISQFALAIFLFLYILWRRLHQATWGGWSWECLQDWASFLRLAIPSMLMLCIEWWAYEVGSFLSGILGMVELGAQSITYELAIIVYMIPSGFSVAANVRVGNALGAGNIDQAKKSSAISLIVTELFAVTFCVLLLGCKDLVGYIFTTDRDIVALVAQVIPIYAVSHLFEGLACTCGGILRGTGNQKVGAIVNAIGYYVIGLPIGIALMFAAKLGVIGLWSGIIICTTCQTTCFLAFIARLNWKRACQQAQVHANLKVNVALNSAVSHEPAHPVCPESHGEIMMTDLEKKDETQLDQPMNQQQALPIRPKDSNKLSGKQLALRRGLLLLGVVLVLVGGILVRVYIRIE
Sequence of hMATE1 (Q96FL8 whole entry): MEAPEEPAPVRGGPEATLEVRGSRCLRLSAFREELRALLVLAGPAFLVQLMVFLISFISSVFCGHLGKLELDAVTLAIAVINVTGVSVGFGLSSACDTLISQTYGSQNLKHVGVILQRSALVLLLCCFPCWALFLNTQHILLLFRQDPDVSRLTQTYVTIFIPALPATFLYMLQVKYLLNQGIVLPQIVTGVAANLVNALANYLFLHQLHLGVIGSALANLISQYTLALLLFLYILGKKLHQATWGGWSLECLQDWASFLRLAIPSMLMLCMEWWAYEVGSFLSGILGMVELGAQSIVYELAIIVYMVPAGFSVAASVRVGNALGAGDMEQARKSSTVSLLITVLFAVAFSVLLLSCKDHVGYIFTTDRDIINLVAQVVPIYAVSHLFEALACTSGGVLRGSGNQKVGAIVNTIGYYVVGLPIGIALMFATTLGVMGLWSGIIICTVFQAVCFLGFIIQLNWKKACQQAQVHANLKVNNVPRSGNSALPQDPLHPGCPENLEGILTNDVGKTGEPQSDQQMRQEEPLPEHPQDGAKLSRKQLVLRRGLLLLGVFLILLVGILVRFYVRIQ

In the case of Cc1cn(-c2cc(NC(=O)c3ccc(C)c(Nc4nccc(-c5cccnc5)n4)c3)cc(C(F)(F)F)c2)cn1 [Nilotinib, nilotinib], the “Influence on uptake of vincristine” value (P388D1) is reported as “did not influence the uptake of vincristine”, the “Influence of pretreatment on accumulation of vincristine in whole DRG samples” value ([1]; nilotinib 100 mg/kg, vincristine 1 mg/kg) is reported as “significantly diminished by nilotinib” and the “Cell area changes (%Δ from baseline)” value (DRG neurons; OATP1B2(-/-) mice + Nilotinib) is reported as 0.695% and -1.012% and -0.86%. The “Cell area changes (%Δ from baseline)” value (DRG neurons; Wild-type mice + Nilotinib) was 0.351% and -0.994% and -0.034%, the “Prevention of vincristine-induced reduction in cell size of DRG neurons” value (DRG neurons; nilotinib 100 mg/kg p.o. pretreatment) was “could be prevented by pretreatment with nilotinib” and the “EβG uptake (% of vehicle)” value (mOATP1B2 [2]) was 37.5921 % of vehicle and 30.8257 % of vehicle and 32.2185 % of vehicle. For the same compound, the “Paw withdrawal latency (%Δ from baseline)” value (mice [3]; KO (OATP1B2-/-) mice, nilotinib 100 mg/kg p.o. 30 min before each vincristine 1 mg/kg, 4 weeks) was 81.1 %Δ from baseline and 88.2 %Δ from baseline and 119.5 %Δ from baseline and 100.4 %Δ from baseline and 93.8 %Δ from baseline and 69.5 %Δ from baseline, the “Paw withdrawal latency (%Δ from baseline)” value (mice [3]; [7]) was 137.5 %Δ from baseline and 110.5 %Δ from baseline and 107.4 %Δ from baseline and 126 %Δ from baseline and 95.3 %Δ from baseline and 92.7 %Δ from baseline and the “Protection against vincristine-associated changes in mechanical allodynia, thermal hyperalgesia and sciatic nerve maximal AMP” value (mice [4]; 100 mg/kg orally 30 minutes before each of 4 vincristine doses of 1 mg/kg) was “effectively protected against treatment-associated changes”. The Caudal nerve amplitude (mice [5]; [8]) was 95.6% and 93.7% and 108.6% and 106% and 98.1%, the Caudal nerve velocity (mice [5]; [8]) was 102.8% and 100.9% and 101.1% and 98% and 97.3% and the Sciatic nerve amplitude (mice [5]; [8]) was 114.4% and 121.2% and 118.7% and 82.8% and 93.6% and 69.3%. For the same compound, the Sciatic nerve velocity (mice [5]; [8]) was 95.7% and 106.4% and 97.8% and 107.3% and 98.7% and 94.1%, the Caudal nerve amplitude (mice [5]; [9]) was 89.3% and 94% and 95.6% and 104.4% and 86.9% and the Caudal nerve velocity (mice [5]; [9]) was 97.1% and 98.5% and 95% and 100.3% and 98.1% and 98.7%. For the same compound, the Sciatic nerve velocity (mice [5]; [9]) was 92.3% and 108.6% and 101.5% and 100.5% and 93.7% and 102.8%, the Sciatic nerve amplitude (mice [5]; [7]) was 108.6 %Δ from baseline and 88.8 %Δ from baseline and 77.9 %Δ from baseline and 89.5 %Δ from baseline and 98.8 %Δ from baseline and 89.1 %Δ from baseline and the Caudal nerve amplitude (mice [5]; [10]) was 120.6% and 88.2% and 115.9% and 89.2% and 91.2% and 94.8%. For the same compound, the Caudal nerve velocity (mice [5]; [10]) was 98.2% and 90.4% and 108% and 104.2% and 102% and 97.3%, the Sciatic nerve amplitude (mice [5]; [10]) was 97.8% and 93% and 117% and 84.6% and 113.5% and 94% and the Sciatic nerve velocity (mice [5]; [10]) was 102.2% and 108.4% and 96.7% and 95.6% and 94.8%. The Caudal nerve amplitude (mice [5]; [11]) was 63.6% and 79.9% and 91.5% and 110.8% and 56.5% and 79.7%, the Caudal nerve velocity (mice [5]; [11]) was 92.7% and 93.3% and 98.1% and 103.4% and 110.3% and 95.5% and the Sciatic nerve amplitude (mice [5]; [11]) was 89.1% and 108.6% and 88.8% and 77.9% and 89.5% and 98.8%. The Sciatic nerve velocity (mice [5]; [11]) was 101.8% and 112.7% and 95.6% and 97.9% and 93.4% and 98.9% and the IC50 (OATP1B-type transporters) was about 1000 nM.

For CC[C@]1(O)C[C@H]2CN(CCc3c([nH]c4ccccc34)[C@@](C(=O)OC)(c3cc4c(cc3OC)N(C=O)[C@H]3[C@@](O)(C(=O)OC)[C@H](OC(C)=O)[C@]5(CC)C=CCN6CC[C@]43[C@@H]65)C2)C1 [Vincristine, vincristine], the “Vincristine uptake (% of vector control)” value (mOATP1B2 [6]) was 209.00 % of vector control and 219.00 % of vector control and 238.00 % of vector control and 218.00 % of vector control and 216.00 % of vector control and 220.00 % of vector control, the “Uptake of vincristine in liver and whole DRG samples” value ([1]; OATP1B2-deficient vs WT mice, LC/MS/MS or MALDI-MS imaging) was “decreased uptake of vincristine” and the “Cell size of DRG neurons” value (DRG neurons; WT mice, vincristine 1 mg/kg weekly, 4 weeks) was “reduction in cell size of DRG neurons”. The “Paw withdrawal latency (%Δ from baseline)” value (mice [3]; [12]) was 115.4 %Δ from baseline and 102.8 %Δ from baseline and 99.5 %Δ from baseline and 93.2 %Δ from baseline and 105.4 %Δ from baseline and 88 %Δ from baseline and 77.4 %Δ from baseline, the “Paw withdrawal latency (%Δ from baseline)” value (mice [3]; [13]) was 94.3 %Δ from baseline and 92.7 %Δ from baseline and 101.2 %Δ from baseline and 102.2 %Δ from baseline and 111.0 %Δ from baseline and 84.6 %Δ from baseline and 112.1 %Δ from baseline and the “Paw withdrawal latency (%Δ from baseline)” value (mice [3]; WT mice, vincristine 1 mg/kg weekly i.p. + vehicle pretreatment, 4 weeks) was 66.8 %Δ from baseline and 70.6 %Δ from baseline and 94.2 %Δ from baseline and 54.6 %Δ from baseline and 68.3 %Δ from baseline and 64.2 %Δ from baseline and 82.5 %Δ from baseline. The “Paw withdrawal latency (%Δ from baseline)” value (mice [3]; Wild-type mice, vincristine 1 mg/kg weekly, Week 4) was 61.8 %Δ from baseline and 39.1 %Δ from baseline and 56.0 %Δ from baseline and 42.8 %Δ from baseline and 56.3 %Δ from baseline and 55.6 %Δ from baseline, the “Protection against treatment-related mechanical allodynia by OATP1B2 deficiency” value (mice [4]; mouse, in vivo) was “protection against treatment-related mechanical allodynia was only observed” and the Sciatic nerve amplitude (mice [5]; [12]) was 107.5 %Δ from baseline and 81.9 %Δ from baseline and 90.9 %Δ from baseline and 97.4 %Δ from baseline and 87.3 %Δ from baseline and 91.9 %Δ from baseline and 109.9 %Δ from baseline. The Sciatic nerve amplitude (mice [5]; [13]) was 90.9 %Δ from baseline and 97.4 %Δ from baseline and 87.3 %Δ from baseline and 91.9 %Δ from baseline and 109.9 %Δ from baseline and 107.5 %Δ from baseline and 81.9 %Δ from baseline, the “Contribution of transporter to cellular uptake of vincristine” value (hMATE1) was “do not appreciably contribute to the cellular uptake of vincristine” and the “Contribution of transporter to cellular uptake of vincristine” value (mMATE1) was “do not appreciably contribute to the cellular uptake of vincristine”.
